According to publication PMC6642116, “Structural and functional analyses of hepatitis B virus X protein BH3-like domain and Bcl-xL interaction” (Nature Communications, 2019):
Where two headings read alike, the source gives them in different places. Residues, ends and D or L forms follow the SMILES beside them.

Experiments:
Bcl-xL = molecular target: T1, Bcl-xL (Homo sapiens, UniProt Q07817, DEL27-82); assay: Isothermal titration calorimetry of peptides with Bcl-xL; format: binding; settings: ITC, 25 °C, peptide 800 μM
T1 construct: 6xHis-SUMO (N, cleaved yes); made in house; host or cells: Escherichia coli BL21(DE3)
Source text: The codon-optimized DNAs encoding Bcl-xLΔTM (the flexible loop, residues 27–82, and the transmembrane domain, residues, 197–233, are deleted, total […], named as Bcl-xL thereafter) was ordered from Genewiz (www.genewiz.com). The recombinant Bcl-xL with N-terminal SUMO-fused 6× His tag was generated by the insertion of the PCR products into pETSUMO vector (Invitrogen; www.thermofisher.com) and verified by sequencing. Recombinant proteins were expressed in Escherichia coli (BL21/DE3) strain overnight at 20 °C and proteins were induced by 0.4 mM isopropyl β-D-thiogalactoside. Cells were harvested by centrifugation and the pellets were re-suspended and passed through a cell disruptor (www.avestin.com) three times. After ultracentrifugation at 40,000 rpm for 1 h, the supernatant for His-tagged recombinant proteins were purified through Ni^2+ affinity column, cleaved by Ulp-1, followed by HiLoad Superdex S-75 26/60 column (GE Healthcare). The purified proteins were dialyzed against stabilization buffer containing 20 mM Tris-HCl (pH 7.0) and 100 mM NaCl and concentrated to 10–15 mg/ml in a Centriprep-30 (Amicon) for subsequent crystallization and biochemical analysis.
Microcalorimetry was used for all measurements. Bcl-xL protein was prepared at a final concentration of 10 μM in a buffer containing 25 mM Tris-HCl (pH 8.0). The ABT-263 was dissolved in the same buffer to a final concentration of 500 μM, while the peptides were dissolved to a final concentration of 800 μM. All experiments were carried out at 25 °C. Data were analyzed using the software Origin (OriginLab).

HepG2-NTCP cells [1] = assay: Cell viability (CCK8 assay) of HBV-infected HepG2-NTCP cells; format: cell-based; parameters: Cell viability: unit not given here; settings: for Cell viability: day 8 after HBV infection
Method: Fig. 6 The HBx-aa118–127 peptide, but not ABT-263, inhibits HBV replication and transcription in HepG2.2.15 cells. a HepG2.2.15 cells were treated with 125, 250, 500, and 1000 nM of ABT-263 for 2 days. Cytoplasmic HBV viral particles were isolated and the viral DNA replication intermediates were quantified (Methods). The results represent the fold change of the replicative intermediates in HepG2.2.15 cells from the indicated treatments, compared with those without treatment. b HepG2.2.15 cells were treated with the indicated concentrations of ABT-263 for 2 days. The lysate was analyzed by immunoblotting using antibodies to caspase-3 (CASP3) and GAPDH (glyceraldehyde 3-phosphate dehydrogenase). c, d The HBx-aa113–135, HBx-aa118–127, or the control peptides were delivered into HepG2.2.15 cells using PEP-1 nanoparticles (Methods). The levels of HBV DNA (c) and the levels of HBV S-antigen (HBsAg) expression (d) in culture medium collected from HepG2.2.15 cells were measured (Methods). The results are shown as fold change compared to that of the control peptide. e–g HepG2-NTCP cells were transfected with HBx118–127 peptide with concentration of […], and 50 μg/ml or unrelated control peptide during HBV infection (multiplicity of infection (MOI) = 200), respectively. e HBV e-antigen (HBeAg), f HBV DNA, and g cell viability were measured at day 8 after HBV infection. Data shown represent mean ± SD. Significance is indicated on the top. Not significant (ns): *P < 0.05, **P < 0.01; two-tailed unpaired t tests (n = 3 biologically independent samples). Source data are provided as a Source Data file
HBx-aa118-127 peptide treatment.
obvious cytotoxicity at concentrations between 12.5-200 µg/mL (Fig. 6g). Taken together, […]

HepG2-NTCP cells [2] = assay: as above; format: cell-based; parameters: unit not given here; settings: CCK8, 200 µg/mL, day 8 after HBV infection
[3] = Bcl-xL 10 μM in 25 mM Tris-HCl (pH 8.0), read-out: dissociation constant

Row | Structure (SMILES) | Kd (Bcl-xL; [3]) | Kd (Bcl-xL; Bcl-xL 10 μM presaturated with ABT-263, 25 mM Tris-HCl (pH 8.0), read-out: dissociation constant, Bcl-xL presaturated with ABT-263) | Cell viability (HepG2-NTCP cells [1]; CCK8, 12.5 µg/mL, replicate 1) | Cell viability (HepG2-NTCP cells [1]; CCK8, 12.5 µg/mL, replicate 2) | Cell viability (HepG2-NTCP cells [1]; CCK8, 12.5 µg/mL, replicate 3) | Cell viability (HepG2-NTCP cells [1]; CCK8, 50 µg/mL, replicate 1) | Cell viability (HepG2-NTCP cells [1]; CCK8, 50 µg/mL, replicate 2) | Cell viability (HepG2-NTCP cells [1]; CCK8, 50 µg/mL, replicate 3) | cytotoxicity (in words) (HepG2-NTCP cells [1]; HepG2-NTCP, 12.5, 50, and 200 µg/ml) | Cell viability (HepG2-NTCP cells [2]; replicate 1) | Cell viability (HepG2-NTCP cells [2]; replicate 2) | Cell viability (HepG2-NTCP cells [2]; replicate 3)
1 | CC[C@H](C)[C@H](NC(=O)[C@H](CCC(=O)O)NC(=O)[C@H](CCC(=O)O)NC(=O)CNC(=O)[C@H](CC(C)C)NC(=O)[C@H](CCC(=O)O)NC(=O)[C@H](CCC(=O)O)NC(=O)[C@H](Cc1c[nH]c2ccccc12)NC(=O)[C@H](CC(=O)O)NC(=O)[C@@H](N)CCCCN)C(=O)O [HBx-aa118–127] (H-KDWEELGEEI-OH) | 10 ± 2.95 µM | 21 ± 4.05 µM | 94.534 | 96.726 | 98.429 | 92.904 | 96.191 | 97.303 | no obvious cytotoxicity | 96.104 | 101.260 | 101.966
2 | CC[C@H](C)[C@H](NC(=O)[C@H](CCC(=O)O)NC(=O)[C@H](CCC(=O)O)NC(=O)CNC(=O)[C@H](CC(C)C)NC(=O)[C@H](CCC(=O)O)NC(=O)[C@H](CCC(=O)O)NC(=O)[C@H](Cc1c[nH]c2ccccc12)NC(=O)[C@H](CC(=O)O)NC(=O)[C@H](CCCCN)NC(=O)[C@H](Cc1ccccc1)NC(=O)[C@@H](NC(=O)[C@H](CS)NC(=O)[C@H](CC(=O)O)NC(=O)[C@@H](N)CCCCN)C(C)C)C(=O)N[C@@H](CCCNC(=N)N)C(=O)N[C@@H](CC(C)C)C(=O)N[C@@H](CCCCN)C(=O)N[C@H](C(=O)N[C@@H](Cc1ccccc1)C(=O)N[C@H](C(=O)N[C@@H](CC(C)C)C(=O)NCC(=O)O)C(C)C)C(C)C [HBx-aa113–135] | 26.5 ± 13.7 µM |  |  |  |  |  |  |  |  |  |  | 
